Patent publication US20180311276A1, “Method and Apparatus for Treating Oral Disease in Animals” (priority 2015, published 2018)

Tests used:
[1] = tested on: oral bacteria responsible for plaque formation; assay: kill of oral bacteria responsible for plaque formation; type: cell-based; conditions: 2 micrograms/mL
Description: (§1) The inventor evaluated a variety elemental iodine concentrations e.g., 0.5, 1.0, 2.0, 3, 5, 10, 15 and 20 micrograms/mL and discovered that dogs preferred drinking water with elemental iodine below 2 micrograms/mL. We evaluated the ability of elemental iodine to kill oral bacteria at a concentration of 2 micrograms/mL responsible for plaque formation and discovered that elemental iodine was effective at this dose i.e., microbial kill >3 logs/min. We evaluated lower concentrations of elemental iodine e.g., 0.05, 0.1 and 0.5 micrograms/mL. […] We hypothesized that molecular iodine concentrations below 0.5 micrograms/mL may not be not effective in killing oral bacteria responsible for plaque formation. We confirmed this assumption by performing microbial analysis. The inventor sent samples of two part preparations e.g., 1 vial with water and a second vial with iodine in 100% ethyl alcohol. These were combined before analysis so that the final concentrations were 0.05, 0.1, 0.5, 1.0, 2.0 and 5.0 micrograms/mL. The test organism was a known plaque-producing bacterium i.e., Neisseria spp. A contract research laboratory in Texas i.e., MicroChem Laboratories performed the use dilution experiments.

[2] = saturation of absolute alcohol with molecular iodine; type: physicochemical
Description: One embodiment of the present invention features a carrier liquid ethanol. The ethanol is preferably devoid of water, as in absolute alcohol. As used herein, the term “absolute alcohol” refers to alcohol with no or limited water content as such term is used in a commercial context. One formulation molecular iodine having a concentration in absolute alcohol in the range of 0.1 to 1.0 Gm molecular iodine in 13 milliliters of absolute alcohol. Molecular iodine saturates absolute alcohol at a concentration of 1 Gm per 13 milliliters of absolute alcohol. A further embodiment of the present formulation features a molecular sieve particle of between 2 and 4 A which captures and adsorbs water.

[3] = tested on: thyroid hormone levels; assay: thyroid hormone levels in the two shelter clinical trials; type: in vivo, dogs; conditions: iodine added to dog drinking water
Method: (§2) Plaque formation leads to gingivitis and periodontal disease and often progresses to systemic disease and death in dogs. Clinical trial 1 was conducted at a humane shelter with all dogs enclosed in kennels using a manually added drug vs. placebo. Subsequently, Clinical Trial 2 was conducted at a humane shelter with all dogs enclosed in kennels but in this case the iodine vs placebo was administered via an automated system.
Furthermore, neither dog weight or age affected the plaque prevention effect. Finally, the iodine added to dog drinking water had no effect on dog thyroid hormone levels.

[4] = tested on: thyroid level (T4); assay: thyroid level (T4) in the Example 1 clinical trial; type: in vivo, dogs; conditions: 0.5 or 1.0 microgram/mL in drinking water, 28 days
Description: Each dog was weighed, blood drawn for determination of thyroid level and a qualitative assessment was made for halitosis using a 0, 1, 2, 3, 4 and 5 scale with 0 indicating no discernible “doggie breath produced by hydrogen sulfide H2S” and 5 being very noxious, strong odor. Dogs were anesthetized, marginal tooth-gum line measurements were taken for proscribed teeth (required for veterinary oral health counsel certification of efficacy at reducing plaque in dogs found at www.VOHC.com) and dog teeth were cleaned to remove all plaque and tarter. All dogs were given either drug or placebo each morning for 28 days. Journal entries were kept for each dog to monitor for compliance, observations regarding dog drinking behavior and comments regarding dog breath/odor. Once each dog drank all the water i.e., 1000 mL the water bowl was filled with fresh water. […] At the end of the study i.e., 28 days each dog was sedated, breath was evaluated and teeth were stained with disclosing solution that is proven to stain plaque red. The attending veterinarian who measured the initial marginal tooth-gum line measured all the proscribed teeth using the published technique (Scherl D S, Coffman L, et al. Validation of a New Dental Plaque Quantification Method in Dogs. J Vet Dent 24(1); 14-20, 2007). All values from all 20 dogs were recorded and whole mouth scores were calculated.

[5] = tested on: plaque formation on teeth; assay: two double-blind, placebo-controlled clinical trials at a humane shelter, plaque prevention; type: in vivo, dogs
Method: as §2
We conducted two double-blind, placebo-controlled clinical trials using both 0.5 and 1.0 micrograms elemental iodine in water.

[6] = tested on: halitosis (volatile sulfur compounds, hydrogen sulfide); assay: halitosis secondary end point: Halimeter VSC readings and qualitative odor 0-5 scale (Example 1); type: in vivo, dogs
Description: Each dog was weighed, blood drawn for determination of thyroid level and a qualitative assessment was made for halitosis using a 0, 1, 2, 3, 4 and 5 scale with 0 indicating no discernible “doggie breath produced by hydrogen sulfide H2S” and 5 being very noxious, strong odor. Dogs were anesthetized, marginal tooth-gum line measurements were taken for proscribed teeth (required for veterinary oral health counsel certification of efficacy at reducing plaque in dogs found at www.VOHC.com) and dog teeth were cleaned to remove all plaque and tarter. All dogs were given either drug or placebo each morning for 28 days. Journal entries were kept for each dog to monitor for compliance, observations regarding dog drinking behavior and comments regarding dog breath/odor. Once each dog drank all the water i.e., 1000 mL the water bowl was filled with fresh water. The following day all the remaining water was discarded and the clinical trial sample was added to the water bowl. At the end of the study i.e., 28 days each dog was sedated, breath was evaluated and teeth were stained with disclosing solution that is proven to stain plaque red. The attending veterinarian who measured the initial marginal tooth-gum line measured all the proscribed teeth using the published technique (Scherl D S, Coffman L, et al. Validation of a New Dental Plaque Quantification Method in Dogs. J Vet Dent 24(1); 14-20, 2007). All values from all 20 dogs were recorded and whole mouth scores were calculated.
The halitosis secondary end point was more complicated since the attempt was made to use an Interscan Corporation Halimeter® that quantitatively measures volatile sulfur compounds (VSC) in the oral cavity. The Halimeter was designed for use by dentists and humans. One of the requirements to obtain reliable readings is for the conscious human subject to blow into a straw connected into the Halimeter. The problem encountered with dogs while under anesthesia is obtaining a valid reading since they are unable to “blow” into the straw. Early dog readings were erratic and turned out to be unreliable. […]

[7] = tested on: plaque; assay: double-blind, placebo controlled clinical trial in 20 adult dogs, whole mouth plaque scores (Example 1); type: in vivo; conditions: 28 days
Method: First, a double-blind, placebo controlled clinical trial was conducted using 20 adult dogs of mixed breed and weights. The dogs were randomly divided into two groups. […] Group 1 dogs were further divided into two groups of five dogs. Five received molecular iodine [I2] dissolved into 1000 mL water to a final concentration of 0.5 microgram/mL. The second group of five dogs received molecular iodine [I2] dissolved into 1000 mL water to a final concentration of 1.0 microgram/mL. The placebo group of 10 dogs received no iodine. […]
Each dog was weighed, blood drawn for determination of thyroid level and a qualitative assessment was made for halitosis using a 0, 1, 2, 3, 4 and 5 scale with 0 indicating no discernible “doggie breath produced by hydrogen sulfide H2S” and 5 being very noxious, strong odor. […] At the end of the study i.e., 28 days each dog was sedated, breath was evaluated and teeth were stained with disclosing solution that is proven to stain plaque red. The attending veterinarian who measured the initial marginal tooth-gum line measured all the proscribed teeth using the published technique (Scherl D S, Coffman L, et al. Validation of a New Dental Plaque Quantification Method in Dogs. J Vet Dent 24(1); 14-20, 2007). All values from all 20 dogs were recorded and whole mouth scores were calculated.

[8] = tested on: Neisseria spp.; assay: use dilution experiments (MicroChem Laboratories); type: cell-based; conditions: for reduction in microbial concentration / kill: 1 minute time point
Description: as §1

## II [molecular iodine]
[1]
  microbial kill: > 3 logs/min
[2]
  concentration at which molecular iodine saturates absolute alcohol: 1 Gm per 13 milliliters of absolute alcohol
[3]
  effect on dog thyroid hormone levels: no effect
[4]
  T4 levels after treatment: remained within normal range
[5]; both 0.5 and 1.0 micrograms/mL water
  plaque prevention: proven effective
[5]; dog drinking water, all dogs regardless of size or age
  prevention of plaque formation, 0.5 versus 1.0 micrograms/mL: statistically significantly identical
[6]; 0-5 scale, 3 dogs of the iodine group, initial levels 4-5, not statistically significant
  Halimeter VSC levels at the conclusion of the clinical trial: 0-1
[6]; 0-5 scale, 5 iodine-treated dogs, initial smell 3-5
  qualitative odor, final: 0-1
[6]; of 10 iodine-treated dogs, 28 days
  number of iodine-treated dogs with reduced oral smell or doggie breath or VSC/H2S: 8
[7]; 0.5 or 1.0 microgram/mL in 1000 mL drinking water, once daily
  whole mouth plaque scores from Day 0 to Day 28, Treated dogs compared to Placebo dogs: statistically significant reduction
[7]; drinking water
  mean plaque score, dogs receiving 0.5 microgram/mL versus 1.0 micrograms/mL: no difference
[8]; 0.05 micrograms/mL
  antimicrobial efficacy: no antimicrobial efficacy
[8]; 0.1 micrograms/mL
  antimicrobial efficacy: no antimicrobial efficacy
[8]; 0.5 microgram/mL
  reduction in microbial concentration: 100 fold
[8]; 1.0 microgram/mL
  reduction in microbial concentration: 1000 fold
[8]; 2.0 microgram/mL
  kill: > 4 logs
[8]; 5.0 microgram/mL
  kill: > 4 logs
[8]; concentrations below 0.5 micrograms/mL, independent use dilution experiments
  killing oral bacteria: not effective
